This passage reports TGI and GI50 results from PubChem BioAssay (NCI).

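Results reflect a 48-hour exposure of cells in 96-well plates to compound at five concentrations. GI50 = concentration required for 50% inhibition of growth. Definition used: TGI = concentration required for complete inhibition of growth.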 Bounds are passed on as bounds.

Test systems include SW-620 colon; RPMI-8226 leukemia; T-47D breast; SK-OV-3 ovarian; SK-MEL-2 melanoma; SNB-75 CNS; BT-549 breast; A498 renal.
Assay in all cases: growth of human tumour cells (NCI), 48 h

For the compound `N#CC1Nc2ccccc2[C@@H](O)C1O` (some centres not stated), the TGI in the assay with SW-620 colon, in the assay on RPMI-8226 leukemia, in the assay on T-47D breast, with SK-OV-3 ovarian, in the assay with SK-MEL-2 melanoma and in the assay with SNB-75 CNS was > 100 µM each time.

As for `Cc1cn2c(/C=C3/C(=O)Nc4ccccc43)c(-c3ccc(Cl)cc3)nc2s1`, the GI50 with SW-620 colon was 15.1 µM; with RPMI-8226 leukemia, 12.3 µM; with SK-MEL-2 melanoma it was 30.8 µM; in the assay with BT-549 breast, 9.32 µM; with A498 renal, 10.6 µM. Further, the TGI with SW-620 colon is 38.2 µM; in the assay on RPMI-8226 leukemia, 39.2 µM; in the assay on SK-MEL-2 melanoma, > 50 µM; with BT-549 breast, 19.3 µM; with A498 renal, 23.6 µM.

In the case of `O=C(O)c1cc(O)c2c(c1)C(C1c3cc(C(=O)O)cc(O)c3C(=O)c3c(OC4OC(CO)C(O)C(O)C4O)cccc31)c1cccc(OC3OC(CO)C(O)C(O)C3O)c1C2=O` (configuration not stated), the GI50 with SW-620 colon, in the assay on T-47D breast, with SK-OV-3 ovarian, in the assay with SK-MEL-2 melanoma, with SNB-75 CNS and with BT-549 breast was > 100 µM each time. For the same compound, the GI50 with A498 renal is > 100 µM. Besides, the TGI in the assay on SW-620 colon, in the assay on T-47D breast, in the assay on SK-OV-3 ovarian, with SK-MEL-2 melanoma, with SNB-75 CNS and in the assay on BT-549 breast was > 100 µM each time. The TGI in the assay with A498 renal is > 100 µM.

Take `O=C(O)c1cccc(OCCO)c1`: the TGI in the assay on SW-620 colon, in the assay with RPMI-8226 leukemia, with T-47D breast, in the assay on SK-OV-3 ovarian, with SK-MEL-2 melanoma and with BT-549 breast was > 100 µM throughout. Moreover, in the assay on A498 renal, the TGI is > 100 µM.

As to `CC(=O)Oc1ccccc1C(=O)N=C1[Se]CCCN1C(=O)c1ccccc1OC(C)=O`, the GI50 was 3.58 µM in the assay with SW-620 colon; 2.42 µM with RPMI-8226 leukemia; 3.44 µM in the assay on T-47D breast; 3.4 µM with SK-OV-3 ovarian; 2.38 µM with SK-MEL-2 melanoma; 2.01 µM with SNB-75 CNS. For the same compound, in the assay on BT-549 breast, the GI50 is 2.29 µM. Besides, the TGI was 11.4 µM with SW-620 colon; 6.13 µM in the assay on RPMI-8226 leukemia; 13.5 µM in the assay on T-47D breast; 6.16 µM in the assay on SK-OV-3 ovarian; 5.09 µM with SK-MEL-2 melanoma; 4.69 µM in the assay on SNB-75 CNS. Besides, in the assay on BT-549 breast, the TGI was 6.66 µM.

In the case of `Cc1ccc(N(CSc2ccc(Cl)cc2)CSc2ccc(Cl)cc2)cc1`, the GI50 with SW-620 colon was 2.22 µM; in the assay with RPMI-8226 leukemia, 2.13 µM; in the assay with T-47D breast, 2.92 µM; with SK-OV-3 ovarian, 3.29 µM; with SK-MEL-2 melanoma, 3.76 µM; with SNB-75 CNS, 1.39 µM. The GI50 in the assay with BT-549 breast is 0.334 µM. Further, the TGI in the assay with SW-620 colon amounted to 11.5 µM; in the assay on RPMI-8226 leukemia, 6.46 µM; with T-47D breast, 18.3 µM; in the assay on SK-OV-3 ovarian, 19.3 µM; in the assay with SK-MEL-2 melanoma it was 25 µM; in the assay on SNB-75 CNS it was 8.7 µM. The compound further had a TGI with BT-549 breast of 1.54 µM.

`COC(COC(=O)N1CCN(C=O)CC1)C1=C(N2CC2)C(=O)C(C)=C(N2CC2)C1=O` (configuration not stated): the TGI is 1.59 µM in the assay with SW-620 colon; 1.52 µM in the assay on RPMI-8226 leukemia; 22.4 µM in the assay with T-47D breast; 2.11 µM in the assay with SK-OV-3 ovarian; 1.97 µM in the assay on BT-549 breast; 4.02 µM with A498 renal.

Consider `CCN(CC)CCOc1ccc(/C(=C(\C)c2ccc(F)c(OC)c2)c2ccc(Cl)cc2)cc1`, for which the GI50 in the assay with SW-620 colon is 2.12 µM; in the assay on RPMI-8226 leukemia it was 2.6 µM; with T-47D breast, 2.41 µM; in the assay on SK-OV-3 ovarian, 2.97 µM; in the assay with SK-MEL-2 melanoma, 2.8 µM; with SNB-75 CNS, 2.02 µM. For the same compound, the GI50 with BT-549 breast is 2.67 µM. Also, the TGI with SW-620 colon came to 4.28 µM; in the assay with RPMI-8226 leukemia, 6.3 µM; in the assay on T-47D breast, 5.86 µM; with SK-OV-3 ovarian, 5.73 µM; in the assay on SK-MEL-2 melanoma, 5.51 µM; in the assay on SNB-75 CNS it was 4.84 µM. In the assay with BT-549 breast, this compound showed a TGI of 5.13 µM.

Consider `O/N=C\c1c(O)ccc2ccccc12`, for which the TGI in the assay with SW-620 colon, with RPMI-8226 leukemia, in the assay with T-47D breast, in the assay on SK-OV-3 ovarian, in the assay with SNB-75 CNS and in the assay with A498 renal was > 100 µM each time.

In the case of `O=C(CCCN1CC=C(n2c(=O)[nH]c3ccccc32)CC1)c1ccc(F)cc1`, the GI50 is 53.5 µM with SW-620 colon; 30.4 µM in the assay on RPMI-8226 leukemia; 19.7 µM in the assay with T-47D breast; > 100 µM in the assay on SK-OV-3 ovarian; 19.5 µM with SK-MEL-2 melanoma; 24.9 µM with BT-549 breast. Moreover, the TGI is > 100 µM in the assay on SW-620 colon; > 100 µM in the assay on RPMI-8226 leukemia; 73.6 µM in the assay on T-47D breast; > 100 µM in the assay on SK-OV-3 ovarian; 70.9 µM in the assay with SK-MEL-2 melanoma; 86.8 µM in the assay on BT-549 breast.

On to `Cc1[nH][nH]c(=O)c1C=Nc1ccc(-c2nc3ccccc3[nH]2)cc1`, for which the GI50 with SW-620 colon was 25.6 µM; in the assay on RPMI-8226 leukemia, 38.2 µM; in the assay on SK-OV-3 ovarian, 41.9 µM; with SK-MEL-2 melanoma it was 23.3 µM; in the assay with SNB-75 CNS it was 19.6 µM; in the assay with BT-549 breast, 36.2 µM. The TGI in the assay on SW-620 colon was 55.7 µM; in the assay with RPMI-8226 leukemia, > 100 µM; with SK-OV-3 ovarian, > 100 µM; in the assay on SK-MEL-2 melanoma, 48 µM; in the assay with SNB-75 CNS it was 40.5 µM; in the assay with BT-549 breast it was 97.1 µM.

In the case of `CCCCCc1c(C)[nH]c(/C=C2\N=C(c3ccc[nH]3)C=C2CC)c1C`, the GI50 was < 0.01 µM in the assay on SW-620 colon; < 0.01 µM in the assay on RPMI-8226 leukemia; 0.0187 µM with T-47D breast; 0.0609 µM in the assay on SK-OV-3 ovarian; < 0.01 µM with SK-MEL-2 melanoma; 0.0145 µM in the assay with BT-549 breast. Further, in the assay on A498 renal, the GI50 is < 0.0228 µM. Moreover, the TGI in the assay with SW-620 colon was found to be 0.17 µM; with RPMI-8226 leukemia, 0.0962 µM; with T-47D breast, 0.149 µM; in the assay on SK-OV-3 ovarian, 0.383 µM; in the assay on SK-MEL-2 melanoma it was 0.0257 µM; in the assay with BT-549 breast, 0.17 µM. Besides, the TGI in the assay with A498 renal stood at 0.267 µM.

Take `CC(=O)Oc1ccccc1C(=O)N=C1[Se]CCN1C(=O)c1ccccc1OC(C)=O`: the GI50 is 1.52 µM with SW-620 colon; 2.94 µM in the assay with RPMI-8226 leukemia; 1.84 µM in the assay with T-47D breast; 1.05 µM in the assay on SK-OV-3 ovarian; 1.42 µM with SK-MEL-2 melanoma; 1.25 µM in the assay with SNB-75 CNS. Moreover, the GI50 in the assay with A498 renal was 1.02 µM. Further, the TGI with SW-620 colon is 6.09 µM; in the assay on RPMI-8226 leukemia, 8.46 µM; with T-47D breast, 5.06 µM; in the assay with SK-OV-3 ovarian, 2.82 µM; in the assay on SK-MEL-2 melanoma, 3.91 µM; in the assay with SNB-75 CNS, 3 µM. Moreover, in the assay with A498 renal, the TGI worked out at 2.4 µM.

In the case of `CCN1C(=O)N(CC)C2C1NC(=S)N2/N=C/C=C/c1cccs1` (configuration not stated), the GI50 in the assay with SW-620 colon is 0.355 µM; with RPMI-8226 leukemia it was 0.413 µM; with T-47D breast, 0.428 µM; in the assay with SK-OV-3 ovarian it was 0.339 µM; in the assay on SK-MEL-2 melanoma, 0.529 µM; in the assay on BT-549 breast, 1.2 µM. In addition, the GI50 in the assay on A498 renal was 0.0855 µM. For the same compound, the TGI with SW-620 colon was > 100 µM; with RPMI-8226 leukemia, > 38.9 µM; in the assay with T-47D breast it was > 100 µM; in the assay with SK-OV-3 ovarian it was > 100 µM; with SK-MEL-2 melanoma it was > 100 µM; in the assay with BT-549 breast it was 9.09 µM. This compound yielded a TGI in the assay with A498 renal of 0.539 µM.

For `C#CC(=O)Nc1cccc(Nc2nc3c(c(NCc4ccccc4)n2)CCCC3)c1`, the GI50 in the assay on T-47D breast is 0.964 µM; with SK-OV-3 ovarian it was 0.336 µM; in the assay with SK-MEL-2 melanoma, 0.543 µM; in the assay with BT-549 breast, 0.0266 µM; in the assay with A498 renal, 0.115 µM. In addition, the TGI in the assay on T-47D breast came out at 3.7 µM; with SK-OV-3 ovarian, 0.793 µM; in the assay on SK-MEL-2 melanoma it was 1.98 µM; in the assay with BT-549 breast, 0.0776 µM; with A498 renal, 0.918 µM.

For `CCOC(=O)C1=C(C)N(N)C(=S)NC1c1ccc(C)cc1` (configuration not stated), the GI50 in the assay with RPMI-8226 leukemia is 44.7 µM; in the assay with T-47D breast it was 23.1 µM; with SK-MEL-2 melanoma, 21.4 µM; in the assay with A498 renal it was 11.2 µM. Besides, the TGI is > 100 µM with RPMI-8226 leukemia; > 100 µM in the assay on T-47D breast; > 100 µM with SK-MEL-2 melanoma; 9.16 µM with BT-549 breast; > 100 µM in the assay with A498 renal.

With `COc1ccc(C2C(C#N)=C(N)OC3=C2COc2ccc(F)cc23)cc1OC` (configuration not stated), the GI50 in the assay with SW-620 colon was 44.4 µM; in the assay on RPMI-8226 leukemia it was 15.8 µM; in the assay with SK-OV-3 ovarian, 37.3 µM; in the assay with SK-MEL-2 melanoma, 68.7 µM; in the assay on BT-549 breast, 28.9 µM; in the assay on A498 renal it was 28.3 µM. In addition, the TGI with SW-620 colon was > 100 µM; in the assay with RPMI-8226 leukemia, 52.6 µM; with SK-OV-3 ovarian it was > 100 µM; in the assay with SK-MEL-2 melanoma it was > 100 µM; in the assay on BT-549 breast, > 100 µM; in the assay with A498 renal, 59.1 µM.

Turning to `C#C[C@]1(O)CC[C@H]2[C@@H]3CC=C4c5sc(Nc6ccccc6)nc5CC[C@]4(C)[C@H]3CC[C@@]21C`, the GI50 with SW-620 colon was 2.06 µM; with RPMI-8226 leukemia it was 0.309 µM; with T-47D breast, 2.05 µM; in the assay on SK-OV-3 ovarian it was 2.37 µM; in the assay with SK-MEL-2 melanoma, 1.61 µM; with SNB-75 CNS, 0.858 µM. Also, in the assay with A498 renal, the GI50 was 1.34 µM. Further, the TGI in the assay with SW-620 colon came out at 5.85 µM; with RPMI-8226 leukemia, 1.6 µM; in the assay on T-47D breast, 6.94 µM; in the assay with SK-OV-3 ovarian, 10.6 µM; in the assay on SK-MEL-2 melanoma, 5.75 µM; with SNB-75 CNS, 7.41 µM. The compound also displayed a TGI with A498 renal of 3.66 µM.
